Results published in patent US10287301B2 (Achillion Pharmaceuticals, Inc., priority 2015, dated 2019).

Test system: complement alternative pathway (CAP), hemolysis of rabbit erythrocytes (RE)
Test: Combination therapy: hemolysis assay of two compounds
Format: cell-based, human
Details: combination with Complement Factor D inhibitor ("1"); 95% confidence limits; means ± standard deviations from two or three independent experiments
Method: The combinatorial efficacy of two compounds on the complement alternative pathway (CAP) was assessed by determining the effect of two compounds mixed together at various concentrations with Normal Human Serum (NHS) on the hemolysis of rabbit erythrocytes (RE) or the production of terminal complement complex (TCC). In both assays the two test compounds were prepared individually in seven-point dilution series, with an eighth sample for each containing solvent alone, and each of the 64 possible combinations was tested in duplicate or triplicate wells.
In the hemolysis assay, NHS (Complement Technology) diluted to 10% in GVB^0 Buffer (0.1% gelatin, 5 mM Veronal, 145 mM NaCl, 0.025% NaN3, pH 7.3, Complement Technology) plus 10 mM Mg-EGTA was incubated with the compounds at various concentrations for 15 minutes at 37° C. RE (Complement Technology) freshly suspended in GVB^0 plus 10 mM Mg-EGTA was added to a final concentration of 1×10^8 cells/mL and reactions were incubated for 30 minutes at 37° C. Positive control reactions consist of GVB^0 plus Mg-EGTA with NHS and RE but without test compounds; negative control reactions consist of GVB^0 plus Mg-EGTA with RE only. Samples were centrifuged at 2000 g for 3 minutes and supernatants collected. Absorbance at 405 nm (A405) was recorded using a microplate spectrophotometer.
Combinatorial effects in both assays were analyzed using the three-dimensional surface-graphing method of Prichard, M. N. and C. Shipman, Jr., Antiviral Research 1990, 14: 181-205, wherein the X-axis and Y-axis indicate test compound concentrations and the Z-axis indicates the difference between measured inhibition and a theoretically determined additive inhibition. For an additive combinatorial relationship the surface graph will resemble a horizontal plane of zero height, whereas positive surface peaks indicate greater inhibition than expected and therefore synergy, and negative surface peaks indicate less inhibition than expected and therefore antagonism.
Synergy and antagonism volumes are the summed volumes of peaks respectively above and below the Z=0 plane on the surface graph. Volumes are determined using 95% confidence limits to assure significance. Compounds are considered additive for volumes between −25 and 25. Compounds are considered slightly synergistic for volumes between 25 and 50, moderately synergistic for volumes between 50 and 100, and strongly synergistic for volumes greater than 100. Compounds are considered slightly antagonistic for volumes between −25 and −50, moderately antagonistic for volumes between −50 and −100, and strongly antagonistic for volumes less than −100. Results are presented as means±standard deviations from two or three independent experiments.

Compound	Antagonism Volume	Synergy Volume
CCN[C@H](CC(=O)N1CCN(c2nc(N)c3cc(OC)c(OC)c(F)c3n2)CC1)c1ccc(F)cc1 [Complement Factor B inhibitor]	−18 ± 10 μM^2 · % inhibition	157 ± 99 μM^2 · % inhibition
CC[C@H](C)[C@H](N)C(=O)N[C@H]1CSSC[C@@H](C(=O)N[C@H](C(N)=O)[C@@H](C)O)NC(=O)[C@H](CCCN=C(N)N)NC(=O)[C@H](Cc2cnc[nH]2)NC(=O)[C@H](Cc2cnc[nH]2)NC(=O)CNC(=O)[C@H](Cc2c[nH]c3ccccc23)NC(=O)[C@H](CC(=O)O)NC(=O)[C@H](CCC(N)=O)NC(=O)[C@H](C(C)C)NC(=O)[C@H](C(C)C)NC1=O [Compstatin]	−17 ± 15 μM^2 · % inhibition	244 ± 104 μM^2 · % inhibition
N=C(N)c1ccc2cc(OC(=O)c3ccc(N=C(N)N)cc3)ccc2c1 [FUT-175]	−59 ± 11 μM^2 · % inhibition	95 ± 37 μM^2 · % inhibition

Biological target: Human Factor D (Homo sapiens (Human), UniProt P00746)
Test: Human Factor D Assay
Format: biochemical
Details: not given
Procedure, shortened: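 First, compound at various concentrations is mixed with 80 nM (final) human serum Factor D in 50 mM Tris, 1M NaCl, pH 7.5 for 5 min at room temperature.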

Sequence of Human Factor D (P00746 26-253): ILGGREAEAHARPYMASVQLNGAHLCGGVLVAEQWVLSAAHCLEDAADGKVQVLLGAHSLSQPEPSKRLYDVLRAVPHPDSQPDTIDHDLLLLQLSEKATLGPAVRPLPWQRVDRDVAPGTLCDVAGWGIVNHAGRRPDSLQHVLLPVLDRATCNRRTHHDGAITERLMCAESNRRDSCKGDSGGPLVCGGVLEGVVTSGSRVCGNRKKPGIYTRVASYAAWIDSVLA

Compound	IC50
CC(=O)c1nn(CC(=O)N2C[C@H](F)C[C@H]2C(=O)Nc2cccc(Br)[n+]2[O-])c2ccc(-c3cnc(C)nc3)cc12 [Compound 743, 2-((2S,4R)-1-(2-(3-Acetyl-5-(2-methylpyrimidin-5-yl)-1H-indazol-1-yl)acetyl)-4-fluoropyrrolidine-2-carboxamido)-6-bromopyridine 1-oxide]	1000 to 10000 nM
CC(=O)c1nn(CC(=O)N2C[C@H](F)C[C@H]2C(=O)Nc2cccc(Br)[n+]2[O-])c2ccc(-c3cnc(C)[n+]([O-])c3)cc12 [Compound 744, 5-(3-Acetyl-1-(2-((2S,4R)-2-((6-bromo-1-oxidopyridin-2-yl)carbamoyl)-4-fluoropyrrolidin-1-yl)-2-oxoethyl)-1H-indazol-5-yl)-2-methylpyrimidine 1-oxide]	1000 to 10000 nM

Same assay, conditions: Human Factor D, Table 3; read-out: IC50

Compound	IC50
CC(=O)c1nn(CC(=O)N2C[C@H](F)C[C@H]2C(=O)NC2(C#N)CC2)c2ccc(-c3cnc(C)nc3)cc12 [Compound 739, (2S,4R)-1-(2-(3-acetyl-5-(2-methylpyrimidin-5-yl)-1H-indazol-1-yl)acetyl)-N-(1-cyanocyclopropyl)-4-fluoropyrrolidine-2-carboxamide]	< 1000 nM
CC(=O)c1nn(CC(=O)N2C[C@H](F)C[C@H]2C(=O)Nc2cccc(Br)n2)c2ccc(-c3cnc(N)[n+]([O-])c3)cc12 [Compound 741, 5-(3-acetyl-1-(2-((2S,4R)-2-((6-Bromopyridin-2-yl)carbamoyl)-4-fluoropyrrolidin-1-yl)-2-oxoethyl)-1H-indazol-5-yl)-2-aminopyrimidine 1-oxide]	< 1000 nM
CC(=O)c1nn(CC(=O)N2C[C@H](F)C[C@H]2C(=O)Nc2cccc(Br)n2)c2ccc(-c3cnc(C)[n+]([O-])c3)cc12 [Compound 742, 5-(3-Acetyl-1-(2-((2S,4R)-2-((6-bromopyridin-2-yl)carbamoyl)-4-fluoropyrrolidin-1-yl)-2-oxoethyl)-1H-indazol-5-yl)-2-methylpyrimidine 1-oxide]	< 1000 nM
CC(=O)c1nn(CC(=O)N2C[C@H](F)C[C@H]2C(=O)Nc2cccc(-c3cc(S(=O)(=O)NC4CC4)ccc3Cl)c2F)c2ccc(-c3cnc(C)nc3)cc12 [Compound 745, (2S,4R)-1-(2-(3-Acetyl-5-(2-methylpyrimidin-5-yl)-1H-indazol-1-yl)acetyl)-N-(2′-chloro-5′-(N-cyclopropylsulfamoyl)-2-fluoro-[1,1′-biphenyl]-3-yl)-4-fluoropyrrolidine-2-carboxamide]	< 1000 nM
CC(=O)c1nn(CC(=O)N2CCOC[C@@H]2C(=O)Nc2cccc(Br)n2)c2ccc(-c3cnc(C)nc3)cc12 [Compound 748, (R)-4-(2-(3-acetyl-5-(2-methylpyrimidin-5-yl)-1H-indazol-1-yl)acetyl)-N-(6-bromopyridin-2-yl)morpholine-3-carboxamide]	< 1000 nM
CC(=O)c1nn(CC(=O)N2CCOC[C@H]2C(=O)Nc2cccc(Br)n2)c2ccc(-c3cnc(C)nc3)cc12 [Compound 749, (S)-4-(2-(3-acetyl-5-(2-methylpyrimidin-5-yl)-1H-indazol-1-yl)acetyl)-N-(6-bromopyridin-2-yl)morpholine-3-carboxamide]	< 1000 nM
CC(=O)c1nn(CC(=O)N2C[C@H](F)C[C@H]2C(=O)Nc2cccc(S(=O)(=O)C(F)(F)F)c2)c2ccc(-c3cnc4cc(C)nn4c3)cc12 [Compound 752, (2S,4R)-1-(2-(3-acetyl-5-(2-methylpyrazolo[1,5-a]pyrimidin-6-yl)-1H-indazol-1-yl)acetyl)-4-fluoro-N-(3-((trifluoromethyl)sulfonyl)phenyl) pyrrolidine-2-carboxamide]	< 1000 nM
